# Source: PubChem BioAssay AID2060508 (Molecular Pharmacology Branch, DTP, NCI, 2025)
# Test system: 454973-116-R2-J3-PDC spheroids, viability, % test/control
# Test: Anticancer human tumor 454973-116-R2-J3-PDC patient-derived pancreatic carcinoma cell line growth inhibition [GQUAD]
# Details: spheroids with HUVEC and MSC; for IC50: curve of first compound; for viability, T/C: stronger effect = lower value
# Text: DNA G-quadruplex Stabilizer Agents in Combinations in Complex Spheroids
# A high-throughput screen of multi-cell type tumor spheroids was designed to identify active combinations of DNA G-quadruplex stabilizer agents and targeted small molecules. Complex spheroids include a stromal component modeled by human endothelial cells (HUVEC) and fibroblasts modeled by human mesenchymal stem cells (MSCs). The concentration ranges selected for each drug and investigational agent were based upon clinically achievable concentrations if the clinical Cmax of the agent was known.
# Compounds. The drugs and investigational agents: pidnarulex (CX-5461; NSC782164), APTO-253 (NSC789042), BRACO-19 (NSC847499), peposertib (NSC802822), ceralasertib (NSC780249), elimusertib (NSC800525), camonsertib (NSC841442), AZD-1390 (NSC803789), olaparib (NSC753686), talazoparib (NSC767125), ART-558 (NSC835418), sotorasib (NSC818433), MRTX-1133 (NSC836407), SN-38 (NSC673596), topotecan (NSC609699), etoposide (NSC141540), doxorubicin (NSC123127), gemcitabine (NSC613327), 5-fluorouracil (NSC19893), paclitaxel (NSC125973), vemurafenib (NSC761431), panobinostat (NSC761190), R-306465 (JNJ-16241199; NSC773264), adavosertib (NSC754352), TP-3654 (NSC805149), carboplatin (NSC241240), KSQ-4279 (NSC840948), and staurosporine (NSC755774) were obtained from the National Cancer Institute (NCI) Developmental Therapeutics Program Chemical Repository (34). The FDA-approved anticancer drug set is available from the NCI Developmental Therapeutics Program. […] The stock solutions were prepared in dimethyl sulfoxide (DMSO, Sigma-Aldrich, St. Louis, MO, cat. D2650) at 800-fold the tested concentration and stored at -70 degrees C prior to their use. All drugs and investigational agents were tested over a range starting from a high concentration at or near the clinical Cmax and decreasing in half-log increments. If the clinical Cmax for an agent had not been determined, the highest concentration tested was 10 microM.
# 2.3 Cell Culture. All cells were maintained in an incubator at 37 degrees C and 5% CO2 with 95% humidity. The PDC lines were cultured according to standard operating procedures established by the NCI PDMR. All PDCs were thawed and cultured in Matrigel-coated flasks prepared with a working solution of 1X Ham's F-12 nutrient mix, without supplementation (Invitrogen, cat. 11765054), 100 U/mL penicillin-streptomycin (Invitrogen, cat. 15140122), and 2.5% Matrigel (Corning Inc., cat. 354248) for the first three passages. The 857933-349-R-J2-PDC line was cultured in 6C/Colon 1B media, which includes advanced DMEM/F-12 (Thermo Fisher Scientific, cat. 12634028), 10 mM HEPES (Thermo Fisher Scientific, cat. 15630080), 1X GlutaMAX supplement (Thermo Fisher Scientific, cat. 35050061), 0.1 mg/mL primocin (InvivoGen, cat. ant-pm-2), 10% defined fetal bovine serum, heat inactivated (HyClone Laboratories Inc., cat. SH30070.03HI), 50% L-WRN conditioned media (ATCC, cat. CRL-3276), 1.25 mM N-Acetyl-L-cysteine (Sigma-Aldrich, cat. A9165), 10 mM nicotinamide (Sigma-Aldrich, cat. N0636), 1X B-27 supplement (Thermo Fisher Scientific, cat. 17504044), 1X N-2 supplement (Thermo Fisher Scientific, cat. 17502048), 10 microM Y-27632 dihydrochloride (Tocris Bioscience, cat. 1254), and 50 ng/mL human EGF recombinant protein (Thermo Fisher Scientific, cat. PHG0311). The 485176-168-R4-J1-PDC line was cultured in Panc media, which includes all 6C/Colon 1B media components plus 100 ng/mL human FGF-10 (Thermo Fisher Scientific, cat. 100-26), 500 nM SB-431542 (Selleckchem, cat. S1067), and gastrin (Tocris, cat. 3006).
# […]
# [1] = second compound 0.0316 µM, first compound 0.0316 µM
# [2] = second compound 0.0316 µM, first compound 0.1 µM
# [3] = second compound 0.0316 µM, first compound 0.316 µM
# [4] = second compound 0.0316 µM, first compound 1 µM
# [5] = second compound 0.0316 µM, first compound 3.16 µM
# [6] = second compound 0.0316 µM, first compound 10 µM
# [7] = second compound 0.1 µM, first compound 0.0316 µM
# [8] = second compound 0.1 µM, first compound 0.1 µM
# [9] = second compound 0.1 µM, first compound 0.316 µM
# [10] = second compound 0.1 µM, first compound 1 µM
# [11] = second compound 0.1 µM, first compound 3.16 µM
# [12] = second compound 0.1 µM, first compound 10 µM
# [13] = second compound 0.316 µM, first compound 0.0316 µM
# [14] = second compound 0.316 µM, first compound 0.1 µM
# [15] = second compound 0.316 µM, first compound 0.316 µM
# [16] = second compound 0.316 µM, first compound 1 µM
# [17] = second compound 0.316 µM, first compound 3.16 µM
# [18] = second compound 0.316 µM, first compound 10 µM
# [19] = second compound 1 µM, first compound 0.0316 µM
# [20] = second compound 1 µM, first compound 0.1 µM
# [21] = second compound 1 µM, first compound 0.316 µM
# [22] = second compound 1 µM, first compound 1 µM
# [23] = second compound 1 µM, first compound 3.16 µM
# [24] = second compound 1 µM, first compound 10 µM
# [25] = second compound 3.16 µM, first compound 0.0316 µM
# [26] = second compound 3.16 µM, first compound 0.1 µM
# [27] = second compound 3.16 µM, first compound 0.316 µM
# [28] = second compound 3.16 µM, first compound 1 µM
# [29] = second compound 3.16 µM, first compound 3.16 µM
# [30] = second compound 3.16 µM, first compound 10 µM
# [31] = second compound 10 µM, first compound 0.0316 µM
# [32] = second compound 10 µM, first compound 0.1 µM
# [33] = second compound 10 µM, first compound 0.316 µM
# [34] = second compound 10 µM, first compound 1 µM
# [35] = second compound 10 µM, first compound 3.16 µM
# [36] = second compound 10 µM, first compound 10 µM
# 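Also: spheroids exposed to compounds for seven days.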
structure (smiles),measurement,setting,value
CC(C)n1c(=O)n(C)c2cnc3cc(F)c(-c4ccc(OCCCN5CCCCC5)nc4)cc3c21 + CN(C)c1ccc(Nc2c3ccc(NC(=O)CCN4CCCC4)cc3nc3cc(NC(=O)CCN4CCCC4)ccc23)cc1,IC50,second compound 0.0316 µM,> 10000 nM
same,IC50,second compound 0.1 µM,> 10000 nM
same,IC50,second compound 0.316 µM,> 10000 nM
same,IC50,second compound 1 µM,> 10000 nM
same,IC50,second compound 3.16 µM,> 10000 nM
same,IC50,second compound 10 µM,4490 nM
same,"viability, T/C",[1],108%
same,"viability, T/C",[2],94.8%
same,"viability, T/C",[3],104%
same,"viability, T/C",[4],99.2%
same,"viability, T/C",[5],78.7%
same,"viability, T/C",[6],73.5%
same,"viability, T/C",[7],103%
same,"viability, T/C",[8],118%
same,"viability, T/C",[9],95.2%
same,"viability, T/C",[10],97.1%
same,"viability, T/C",[11],68.7%
same,"viability, T/C",[12],76.1%
same,"viability, T/C",[13],103%
same,"viability, T/C",[14],103%
same,"viability, T/C",[15],99.5%
same,"viability, T/C",[16],89.1%
same,"viability, T/C",[17],75.1%
same,"viability, T/C",[18],73.8%
same,"viability, T/C",[19],99.6%
same,"viability, T/C",[20],99.3%
same,"viability, T/C",[21],91.7%
same,"viability, T/C",[22],66.3%
same,"viability, T/C",[23],81.8%
same,"viability, T/C",[24],65.3%
same,"viability, T/C",[25],85.7%
same,"viability, T/C",[26],91.7%
same,"viability, T/C",[27],95.9%
same,"viability, T/C",[28],65.8%
same,"viability, T/C",[29],72.5%
same,"viability, T/C",[30],63.7%
same,"viability, T/C",[31],76.9%
same,"viability, T/C",[32],74.6%
same,"viability, T/C",[33],69%
same,"viability, T/C",[34],61.4%
same,"viability, T/C",[35],61.8%
same,"viability, T/C",[36],34.1%
CC1COCCN1c1cc(C2(O)CC3CCC(C2)O3)c2cnn(-c3ccn[nH]3)c2n1 (centres undefined) + CN(C)c1ccc(Nc2c3ccc(NC(=O)CCN4CCCC4)cc3nc3cc(NC(=O)CCN4CCCC4)ccc23)cc1,IC50,second compound 0.0316 µM,176 nM
same,IC50,second compound 0.1 µM,174 nM
same,IC50,second compound 0.316 µM,154 nM
same,IC50,second compound 1 µM,146 nM
same,IC50,second compound 3.16 µM,167 nM
same,IC50,second compound 10 µM,99.5 nM
same,"viability, T/C",[1],106%
same,"viability, T/C",[2],63.8%
same,"viability, T/C",[3],35.4%
same,"viability, T/C",[4],23.3%
same,"viability, T/C",[5],21.4%
same,"viability, T/C",[6],15%
same,"viability, T/C",[7],98.6%
same,"viability, T/C",[8],66.8%
same,"viability, T/C",[9],31.2%
same,"viability, T/C",[10],23.4%
same,"viability, T/C",[11],22.4%
same,"viability, T/C",[12],15%
same,"viability, T/C",[13],99.5%
same,"viability, T/C",[14],61.5%
same,"viability, T/C",[15],30.6%
same,"viability, T/C",[16],21%
same,"viability, T/C",[17],23%
same,"viability, T/C",[18],13.1%
same,"viability, T/C",[19],95.3%
same,"viability, T/C",[20],58.4%
same,"viability, T/C",[21],33.1%
same,"viability, T/C",[22],19.5%
same,"viability, T/C",[23],20.1%
same,"viability, T/C",[24],15.5%
same,"viability, T/C",[25],84%
same,"viability, T/C",[26],63.2%
same,"viability, T/C",[27],33.6%
same,"viability, T/C",[28],19.9%
same,"viability, T/C",[29],22.4%
same,"viability, T/C",[30],14.9%
same,"viability, T/C",[31],65.7%
same,"viability, T/C",[32],53%
same,"viability, T/C",[33],30.4%
same,"viability, T/C",[34],24.4%
same,"viability, T/C",[35],23%
same,"viability, T/C",[36],11.2%
